Source: US7888337B2 (priority 2007, dated 2011)
Several values for one entry are separate records, joined by “and”; a condition that tells them apart may be missing. Equal entries are not always repeated. Where two headings read alike, the source gives them in different places. Marks after values point to notes of the source that are not given here.

What was measured:
[1] = biological target: NA from influenza virus A/Hanoi/30408/2005 (H5N1) (Influenza A virus (A/Hanoi/30408/2005(H5N1)), UniProt Q3C1C4); assay: biochemical
in vitro = settings: dog
[2] = system: flu (A/WSN/1933) infection, H1N1; assay: microbe, parasite or virus in culture; format: cell-based, influenza A/WSN/1933 (H1N1)
[3] = biological target: Neuraminidase (NA) from influenza virus A/WSN/1933 (H1N1) (Influenza A virus, UniProt P03470); assay: biochemical; format: biochemical
[4] = system: influenza A [A/WSN/33 (H1N1)] virus; parameters: species or system mice; settings: mouse, in vivo; for efficacy at lower concentrations in comparison to compounds 3 and 13b: 0.01 mg/kg/day
[5] = system: NIBRG-14 (H5N1) influenza A virus; parameters: species or system mice; settings: mouse, in vivo
[6] = system: A/WSN/33 (H1N1) influenza virus; settings: mouse, in vivo

Sequence of Neuraminidase (NA) from influenza virus A/WSN/1933 (H1N1) (P03470 whole entry, looked up): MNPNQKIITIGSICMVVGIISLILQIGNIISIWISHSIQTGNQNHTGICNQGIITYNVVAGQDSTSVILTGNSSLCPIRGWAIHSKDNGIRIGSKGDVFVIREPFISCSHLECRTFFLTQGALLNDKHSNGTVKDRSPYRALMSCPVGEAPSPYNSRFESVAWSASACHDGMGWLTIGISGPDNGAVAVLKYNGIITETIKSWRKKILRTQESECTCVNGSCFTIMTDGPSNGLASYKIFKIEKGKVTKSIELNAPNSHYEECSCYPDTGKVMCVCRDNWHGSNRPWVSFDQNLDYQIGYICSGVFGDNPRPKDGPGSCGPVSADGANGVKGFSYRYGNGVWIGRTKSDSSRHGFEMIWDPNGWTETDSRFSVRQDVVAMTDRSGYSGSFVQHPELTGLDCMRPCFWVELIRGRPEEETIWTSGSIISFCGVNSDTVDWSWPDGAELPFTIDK

For `CCC(CC)O[C@@H]1C=C(C(=O)O)C[C@H](NC(=N)N)[C@H]1NC(C)=O` [Compound 13a, (3R,4R,5S)-4-acetamido-5-guanidinyl-3-(1-ethylpropoxy)-1-cyclohexene-1-carboxylic acid, reference compound], the IC50 [1] was 160 nM, the CC50 (in vitro) was > 100000 nM and the EC50 ([2]; Influenza A virus, MDCK) was 5.6 nM.

In the case of `CC(=O)N[C@H]1[C@H](O)C=C(P(=O)(O)O)C[C@@H]1N` [Compound 14b, Ammonium (3R,4R,5S)-4-acetamido-5-amino-3-hydroxy-1-cyclohexene-1-phosphonate], the IC50 [3] is reported as 3200 nM and the “NAI activity in comparison with 2 and 3” value [3] is reported as “inferior NAI activity”.

With `CCOP(=O)(O)C1=C[C@@H](OC(CC)CC)[C@H](NC(C)=O)[C@@H](N)C1.N` [Compound 3c, Ethyl (3R,4R,5S)-4-acetamido-5-amino-3-(1-ethylpropoxy)-1-cyclohexene-1-phosphonate ammonium salt] the “survival rate and body weight in comparison to compounds 3 and 13b” value [4] was “improved survival rates and improved weight retention”, the “efficacy at lower concentrations in comparison to compounds 3 and 13b” value [4] was “equally ineffective” and the “Mean day to death” value ([4]; ammonium salt) was 9.3 days and 6.2 days and 4.8 days.

For `CCOP(=O)(O)C1=C[C@@H](OC(CC)CC)[C@H](NC(C)=O)[C@@H](NC(=N)N)C1.N` [Compound 13c, Ethyl (3R,4R,5S)-4-acetamido-5-guanidinyl-3-(1-ethylpropoxy)-1-cyclohexene-1-phosphonate ammonium salt], the “survival rate and body weight in comparison to compounds 3 and 13b” value [4] was “improved survival rates and improved weight retention”, the “efficacy at lower concentrations in comparison to compounds 3 and 13b” value [4] was “equally ineffective” and the “Mean day to death” value ([4]; ammonium salt) was 6.8 days and 5.7 days.

With `CCOC(=O)C1=C[C@@H](OC(CC)CC)[C@H](NC(C)=O)[C@@H](N)C1` [Compound 1, Ethyl (3R,4R,5S)-4-acetamido-5-amino-3-(1-ethylpropoxy)-1-cyclohexene-1-carboxylate phosphate, reference compound] the “% Survivors, day 7” value ([5]; phosphate) was 10 (100)^b % and 0 (40)^b % and 0 (0)^b %, the “% Survivors, day 14” value ([5]; phosphate) was 10 (100)^b % and 0 (40)^b % and 0 (0)^b % and the “Mean day to death” value ([5]; phosphate) was 9.4 days and 7.6 days and 5.3 days.

In the case of `CCOP(=O)(OCC)C1=C[C@@H](OC(CC)CC)[C@H](NC(C)=O)[C@@H](N)C1` [Compound 3b, Diethyl (3R,4R,5S)-4-acetamido-5-amino-3-(1-ethylpropoxy)-1-cyclohexene-1-phosphonate], the “% Survivors, day 7” value [6] is reported as 0 (100)^b % and 0 (60)^b % and 0 (30)^b %, the “% Survivors, day 14” value [6] is reported as 0 (100)^b % and 0 (60)^b % and 0 (30)^b % and the “% Survivors, day 7” value [5] is reported as 0 (100)^b % and 0 (20)^b % and 0 (0)^b %. For the same compound, the “% Survivors, day 14” value [5] was 0 (100)^b % and 0 (20)^b % and 0 (0)^b % and the “Mean day to death” value [5] was 9.5 days and 7.3 days and 5.3 days and 4.9 days.

Work on `CCC(CC)O[C@@H]1C=C(P(=O)(O)O)C[C@H](NC(=N)N)[C@H]1NC(C)=O` [Compound 13b, Ammonium (3R,4R,5S)-4-acetamido-5-guanidinyl-3-(1-ethylpropoxy)-1-cyclohexene-1-phosphonate] yielded an IC50 [1] of 1.82 nM, a CC50 (in vitro) of ~5000 nM and an EC50 ([2]; Influenza A virus, MDCK) of 0.09 nM.

For `CCC(CC)O[C@@H]1C=C(P(=O)(O)O)C[C@H](N)[C@H]1NC(C)=O` [Compound 3, Ammonium (3R,4R,5S)-4-acetamido-5-amino-3-(1-ethylpropoxy)-1-cyclohexene-1-phosphonate], the IC50 [1] was 13.3 nM, the “efficacy compared with Tamiflu by survival rate and mean survival time of mice” value [6] was “more effective than Tamiflu” and the “oral bioavailability in protecting mice against lethal challenge” value ([6]; po) was “orally bioavailable”. For the same compound, the “% Survivors, day 7” value [5] was 10 (100)^b % and 0 (60)^b % and 0 (0)^b %, the “% Survivors, day 14” value [5] was 10 (100)^b % and 0 (60)^b % and 0 (0)^b % and the “Mean day to death” value [5] was 9.1 days and 8.7 days and 5.6 days and 5.7 days. The “efficacy compared with Tamiflu by survival rate and mean survival time of mice” value [5] was “at least equally effective”, the “Mean day to death” value [4] was 8.2 days and 5.9 days and 5.3 days and the CC50 (in vitro) was 74000 nM. For the same compound, the EC50 ([2]; Influenza A virus, MDCK) was 4.67 nM.

For `CC(=O)N[C@H]1[C@H](O)C=C(C(=O)O)C[C@@H]1N` [Compound 14a, (3R,4R,5S)-4-Acetamido-5-amino-3-hydroxy-1-cyclohexene-1-carboxylic acid, reference compound], the IC50 [3] was 36700 nM and the “NAI activity in comparison with 2 and 3” value [3] was “inferior NAI activity”.

For `CCC(CC)O[C@@H]1C=C(C(=O)O)C[C@H](N)[C@H]1NC(C)=O` [Compound 2, (3R,4R,5S)-4-Acetamido-5-amino-3-(1-ethylpropoxy)-1-cyclohexene-1-carboxylic acid, reference compound], the IC50 [1] was 62.9 nM, the CC50 (in vitro) was > 100000 nM and the EC50 ([2]; read-out: EC50) was 31.3 nM.
